Experimental data taken from US20150118329A1, “METHOD FOR PROMOTING ADIPONECTIN PRODUCTION, PREVENTION AND TREATMENT OF HYPOADIPONECTINEMIA” (AMINO UP CHEMICAL CO., LTD., priority 2011, published 2015).

Test system: adipocytes derived from a patient with diabetes, who was severely obese
Test: Screening of functional food product materials (samples 1 to 71) for APR in adipocytes derived from a severely obese diabetic patient
Format: cell-based, human
Conditions: 48 hour value divided by 96 hour value
Method: Fat tissues were harvested from remainder tissues removed at the time of surgery of a subject (a patient who was severely obese and had diabetes) who provided informed consent. These fat tissues were treated in the same manner as in Example 1 and used in screening for the adiponectin production-promoting action of functional food product materials (samples 1 to 71).
The samples 1 to 71 (Table 1 and Table 2) were suspended and dissolved in water, heated water (80° C.) or DMSO, and then stirred for 30 minutes, followed by filter filtration […]) for preparation thereof. The sample 25 was prepared by filter filtration (Φ0.45 μm) without carrying out dilution. Further, with regard to the samples 1 to 18, each of the samples was made with water to 1% suspension or aqueous solution, followed by filter filtration (Φ0.45 μm) for preparation thereof. Botanbouhu extract of the samples 58 and 59 was prepared in the same manner as in Example 2. Table 1 and Table 2 show material, solvent and concentration in the culture medium of samples 1 to 71 (samples 6 to 8 “Mixture of three types of peptides” (manufactured by Katano Bussan) is a mixture of peptides derived from dried kelp or konbu, sardine and pearl oyster).
Eight days after DM-2 treatment, the medium was changed to AM-1 medium with each of the samples 1 to 71 being added and 48 hour value and 96 hour value were measured in the same manner as described in Example 3. APR (Adiponectin Production Ratio; adiponectin secretion promoting index) was calculated by dividing the 48 hour value by the 96 hour value. The results are shown in Table 1 and Table 2 and FIG. 4A.

[1] = concentration in culture medium 0.067%
[2] = concentration in culture medium 10 nM

Work on CC1=C(/C=C/C(C)=C/C=C/C(C)=C/C=C/C=C(C)/C=C/C=C(C)/C=C/C2=C(C)C(=O)[C@@H](O)CC2(C)C)C(C)(C)C[C@H](O)C1=O [Sample 37, Astaxanthin] yielded an APR [1] of 0.34.
CCc1ccc(CCOc2ccc(CC3SC(=O)NC3=O)cc2)nc1 (stereo not shown) [Sample 60, Pioglitazone] showed an APR [2] of 0.96.
CCCc1nc2c(C)cc(-c3nc4ccccc4n3C)cc2n1Cc1ccc(-c2ccccc2C(=O)O)cc1 [Sample 61, Telmisartan] showed an APR [2] of 0.54.
For Cc1c(C(=O)NN2CCCCC2)nn(-c2ccc(Cl)cc2Cl)c1-c1ccc(Cl)cc1 [Sample 62, Rimonabant], the APR [2] was 0.69.
CC(=O)S[C@@H]1CC2=CC(=O)CC[C@]2(C)[C@H]2CC[C@@]3(C)[C@@H](CC[C@@]34CCC(=O)O4)[C@H]12 [Sample 63, Spironolactone] gave an APR [2] of 0.60.
For COC(=O)[C@@H]1CC2=CC(=O)CC[C@]2(C)[C@@]23O[C@@H]2C[C@@]2(C)[C@@H](CC[C@@]24CCC(=O)O4)[C@H]13 [Sample 64, Eplerenone], the APR [2] was 0.62.
CC(C)(Oc1ccc(CCNC(=O)c2ccc(Cl)cc2)cc1)C(=O)O [Sample 65, Bezafibrate] was tested, and the APR [2] was 0.75.
In the case of O=S(=O)(c1cccc2cnccc12)N1CCCNCC1 [Sample 66, Fasudil], the APR [2] was 0.58.
CCCc1nc(C(C)(C)O)c(C(=O)O)n1Cc1ccc(-c2ccccc2-c2nnn[nH]2)cc1 [Sample 69, Olmesartan] was tested, and the APR [2] was 0.00.
Work on CCC1=C(C)CN(C(=O)NCCc2ccc(S(=O)(=O)NC(=O)N[C@H]3CC[C@H](C)CC3)cc2)C1=O [Sample 70, Glimepyride] yielded an APR [2] of 0.82.
CN(C)C(=N)N=C(N)N [Sample 71, Metformin] gave an APR [2] of 0.53.
Compound Fucoxanthin [Sample 36] has an APR [1] of 0.34.
For Hyaluronic acid [Sample 31], the APR [1] was 0.36.
